Results published in article PMC3410856, “Structural Analysis of Specific Metal Chelating Inhibitor Binding to the Endonuclease Domain of Influenza pH1N1 (2009) Polymerase” (PLoS Pathogens, 2012).
Like-named read-outs stand apart in the source and are kept apart here.

Assays:
in vitro = conditions: dog
H1N1 PA-Nter = target: T1, H1N1 PA-Nter (Influenza A virus, UniProt C3W5S0); assay type: binding
T1 construct: PA-N-ter (residues 1–198) from A/California/04/2009-pH1N1; made in house; host or cells: E. coli BL21(DE3)

[1] = system: Influenza A virus A/Aichi/2/68 (H3N2); test: microbe, parasite or virus in culture; assay type: cell-based; conditions: MDCK cells, MOI 0.05, 48 h, CellTiter-Glo, 95% confidence intervals; for IC50: Influenza A virus, H3N2, read-out: antiviral activity IC50 (reduction of virus induced cytopathic effect)
influenza polymerase = conditions: read-out: IC50 in vitro cap-dependent transcriptase assay; cited from earlier work

| SMILES | CC50 (in vitro) [µM] | Tm (apparent melting temperature) (H1N1 PA-Nter; 5 µM PA-Nter, 500 µM inhibitor, no ligand 53.5) [°C] | antiviral activity IC50 (reduction of virus induced cytopathic effect) [1] | antiviral activity IC50 (reduction of virus induced cytopathic effect) ([1]; listed as DBPA) | IC50 [1] [µM] | IC50 (influenza polymerase) [µM] | Tm (apparent melting temperature) (H1N1 PA-Nter) [°C] |
| --- | --- | --- | --- | --- | --- | --- | --- |
| O=C(O)C(=O)CC(=O)c1ccccc1 [DPBA, 2,4-dioxo-4-phenylbutanoic acid] | > 200 | 65 | inactive | did not show any inhibitory effect |  |  |  |
| O=C(O[C@@H]1Cc2c(O)cc(O)cc2O[C@@H]1c1cc(O)c(O)c(O)c1)c1cc(O)c(O)c(O)c1 [EGCG, [(2R,3R)-5,7-dihydroxy-2-(3,4,5-trihydroxyphenyl)chroman-3-yl]3,4,5-trihydroxybenzoate] | 54.7 ± 4.5 |  |  |  | 1.1 ± 0.4 |  |  |
| O=C(O)/C(O)=C/C(=O)C1(Cc2ccc(Cl)cc2)CCCN(S(=O)(=O)Cc2ccccc2)C1 (stereo not shown) [R05-1, 4-[3-[(4-chlorophenyl)methyl]-1-(phenylmethylsulpho)-3-piperidinyl]-2-hydroxy-4-oxo-2-butenoic acid] | > 100 |  |  |  | 20.4 ± 3 | 0.19 | 69 |
| O=C(O)/C(O)=C/C(=O)C1(Cc2ccc(Cl)cc2)CCN(CC2CCCCC2)CC1 [R05-2, 4-[1-cyclohexylmethyl-4-(p-chlorobenzyl)piperidin-4-yl]2,4-dioxobutanoic acid] | > 50 |  |  |  | 15.9 ± 4 |  | 71 |
| O=C(O)/C(O)=C/C(=O)C1(Cc2ccc(Cl)cc2)CCCN(Cc2ccccc2)C1 (stereo not shown) [R05-3, 4-[N-benzyl-3-(4-chlorobenzyl)piperidin-3-yl]2,4-dioxobutanoic acid] | 79.8 ± 11.5 |  |  |  | 19.9 ± 2 |  | 69 |
